{"source": "paper PMC2361176", "about": "“Inhibitory effects of retinoic acid metabolism blocking agents (RAMBAs) on the growth of human prostate cancer cells and LNCaP prostate tumour xenografts in SCID mice” (British Journal of Cancer, 2006)", "key": {"[1]": {"test_system": "human breast T47D cancer cells", "design": "method as in Van Heusden et al, 2002", "conditions": "1 μM, ref Van Heusden et al, 2002; cited from earlier work"}, "LNCaP cells [2]": {"test_system": "LNCaP cells", "experiment": "Cell-cycle analysis (propidium iodide, FACScan)", "format": "cell-based, human", "conditions": "1 μM, 6 days", "method": "LNCaP cells were treated with 1 or 5 μM of ATRA or each of the RAMBAs for 6 days. The cells were trypsinised and washed twice in PBS (Life Technologies, Grand Island, NY, USA). The cells were fixed by adding 70% ethanol and stored at −20°C until staining. The cells were washed twice in PBS. A volume of 1 ml of a propidium iodide (PI) solution (50 μg ml^−1 in PBS) and 500 μl of an RNase stock solution (100 μg ml^−1) were added to the cells and incubated for 1 h in the dark. Approximately 10^4 stained cells were then analysed by flow cytometry (Becton Dickenson FACScan, Franklin Lakes, NJ, USA). The percentages of cells in G0/G1, S, and G2/M phases of the cell cycle as well as percentage of apoptotic cells (sub G0/G1) were determined using MODFIT LT software (Verity Software House, San Jose, CA, USA). The percentages of cells in G0/G1, S, and G2/M phases of the cell cycle were obtained from diploid cells in the sample and the percentage of apoptotic cells (sub G0/G1) was obtained from total cells minus the debris."}, "Bcl-2": {"test_system": "Bcl-2", "experiment": "Western-blot analysis of Bcl-2 in LNCaP cells", "format": "cell-based, human", "conditions": "data not shown", "method": "The Western-blot protocol described for cytokeratins 8/18 was followed with some exceptions. Cell lysates (50 μg) were separated on a 15% SDS–PAGE gel. All washing was performed using TBS containing 1% Tween 20 (TBS-T). Blocking was performed using 5% milk in TBS-T. Incubations were performed using rabbit monoclonal IgG antibody to Bad and Bcl-2 (1 : 1000), as well as horseradish peroxidase-linked anti-rabbit IgG antibodies (1 : 2000) (Cell Signaling Technology, Beverly, MA, USA)."}, "LNCaP cells [3]": {"test_system": "LNCaP cells", "experiment": "TUNEL assay of apoptosis in LNCaP cells", "format": "cell-based, human", "conditions": "1 or 5 μM, 6 days", "method": "A total of 4000 LNCaP cells were plated on each well of an eight-well Lab-Tek II® chamber slide (Nalge Nunc International, Naperville, IL, USA). The LNCaP cells were then treated with either 1 or 5 μM of ATRA or RAMBA for 6 days. Cells were then fixed in 4% paraformaldehyde solution in dH2O. The cells were then processed and stained with FITC (fluorescein isothiocyanate) according to kit instructions (In situ cell death detection kit, AP, Roche Diagnostics Corp., Indianapolis, IN, USA). The FITC-stained cells are then mounted with VectorShield® mounting medium for fluorescence with DAPI (4′,6-diamidine-2′-phenylindole dihydrochloride) nuclear stain (Vector Laboratories, Inc., Burlingame, CA, USA) and covered with ApopTag® plastic coverslips (Intergen Company, Purchase, NY, USA). The slides were then examined under fluorescence microscopy (Eclipse E400, Nikon, Inc., Melville, NY, USA) and counted using SPOT Advance® 3.5 software (Diagnostic Instruments, Inc., Sterling Heights, MI, USA)."}}, "data": [{"smiles": "C[C@@H]([C@H](c1ccc(Nc2nc3ccccc3s2)cc1)n1ccnc1)N(C)C", "note": "[Compound R116010]", "values": [{"measurement": "enhancement of the antiproliferative activity of ATRA", "setting": "[1]", "result": "threefold"}]}, {"smiles": "CC1=C(/C=C/C(C)=C/C=C/C(C)=C/C(=O)Nc2ccc(O)cc2)C(C)(C)CCC1", "note": "[Compound 4-HPR, reference compound]", "values": [{"measurement": "Sub-G1 (%)", "setting": "LNCaP cells [2]; apoptotic cells, control 9.02", "result": 7.52, "unit": "%"}, {"measurement": "G2/M (%)", "setting": "LNCaP cells [2]; control 2.20", "result": 12.03, "unit": "%"}, {"measurement": "S (%)", "setting": "LNCaP cells [2]; control 15.01", "result": 9.18, "unit": "%"}, {"measurement": "G0/G1 (%)", "setting": "LNCaP cells [2]; control 82.78", "result": 79.53, "unit": "%"}, {"measurement": "expression of Bcl-2", "setting": "Bcl-2", "result": "did not effect"}, {"measurement": "induction of apoptosis (TUNEL)", "setting": "LNCaP cells [3]", "result": "concentration-dependent induction of apoptosis"}]}]}
